Measured values reported in paper PMC5114558, “Reader domain specificity and lysine demethylase-4 family function” (Nature Communications, 2016).
Positions count from the first letter of the chain named.

Legend:
[1] = biological target: T1, KDM4A DTD (human KDM4A double tudor domain, 895–1011aa) (Homo sapiens, UniProt O75164); assay: fluorescence polarization (FP) binding, KDM4A-DTD wild-type; conditions: matrix Fig. 1d and Fig. 3c, pH 7.4, read-out: binding affinity (Kd), KDM4A DTD wild-type
T1 construct: DNA encoding DTDs (KDM4A 895–1011aa, KDM4B 917–1031aa and KDM4C 877–991aa); (His)6-HaloTag (pFN29) or (His)6 (pET28b); made in house; host or cells: Escherichia coli BL21 (DE3)
T1 sequence (O75164 895-1011): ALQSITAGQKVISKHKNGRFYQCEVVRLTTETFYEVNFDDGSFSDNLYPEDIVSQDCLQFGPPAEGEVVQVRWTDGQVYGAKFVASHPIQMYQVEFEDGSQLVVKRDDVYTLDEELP
Description: (§1) KDM4 protein sequences used in this study correspond to Uniprot ID: O75164 (human KDM4A, isoform 1), O94953 (human KDM4B, isoform1) and Q9H3R0 (human KDM4C, isoform1). Plasmid encoding KDM4A DTD was kindly provided by R-M Xu (Chinese Academy of Sciences). Complementary DNA encoding human KDM4B-DTD was synthesized (Integrated DNA Technologies). Plasmid containing cDNA of full-length KDM4C (clone ID: HsCD00341594) was obtained from Harvard Plasmid Repository. DNA encoding DTDs (KDM4A 895–1011aa, KDM4B 917–1031aa and KDM4C 877–991aa) were cloned into pFN29 (Promega) with N-terminal (His)6-HaloTag or pET28b with N-terminal (His)6 Tag using In-Fusion HD cloning kit (Clontech). Plasmids encoding Xenopus laevis core histones were a generous gift of K. Luger (University of Colorado-Boulder). Site-directed mutagenesis was performed with Q5 Site-Directed Mutagenesis Kit (New England Biolabs).
(§2) Peptide sequences are given in Supplementary Table 1. […] A no-protein control with only peptide probe was included. Polarization at each concentration was measured as triplicates in 384-well polystyrene black microplates (Thermo Fisher Scientific 262260) by Biotek Synergy H4 multimode plate reader (light source: xenon flash, offset from top: 7 mm, sensitivity: 60%, excitation: 485/20 nm, emission: 528/20 nm, both parallel and perpendicular, normal read speed). Fraction bound (Fb) at each concentration was calculated based on the corresponding polarization values (P): Fbc=(Pc−Pmin)/(Pmax−Pmin), where Pmin is the polarization value of no-protein control and Pmax is the polarization value of the saturation value for that peptide. Dissociation constants (Kd) were derived by KaleidaGraph, Synergy Software (version 4.1.3) using the following equation: Fb=[protein]/([protein]+Kd).

[2] = biological target: T2, KDM4B DTD (human KDM4B double tudor domain, 917–1031aa) (Homo sapiens, UniProt O94953); assay: fluorescence polarization (FP) binding, KDM4B-DTD wild-type; conditions: matrix Fig. 1d, values given in mM, pH 7.4, read-out: binding affinity (Kd), KDM4B DTD
T2 construct: DNA encoding DTDs (KDM4A 895–1011aa, KDM4B 917–1031aa and KDM4C 877–991aa); (His)6-HaloTag (pFN29) or (His)6 (pET28b); made in house; host or cells: Escherichia coli BL21 (DE3)
T2 sequence (O94953 917-1031): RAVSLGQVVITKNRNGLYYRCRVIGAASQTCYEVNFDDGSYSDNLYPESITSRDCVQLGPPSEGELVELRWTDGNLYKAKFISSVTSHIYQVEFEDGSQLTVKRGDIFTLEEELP
Description: as §1, §2

[3] = biological target: T3, KDM4B N960A (Homo sapiens, UniProt O94953, N960A); assay: FP binding, KDM4B-DTD N960A; conditions: pH 7.4, Fig. 4g (± s.d., three replicates) and text
T3 construct: DNA encoding DTDs (KDM4A 895–1011aa, KDM4B 917–1031aa and KDM4C 877–991aa); (His)6-HaloTag (pFN29) or (His)6 (pET28b); made in house; host or cells: Escherichia coli BL21 (DE3)
T3 sequence (O94953 917-1031 N960A): T2 sequence (O94953 917-1031) with N44A
Description: as §1, with “Plasmids encoding Xenopus laevis core histones were a generous gift of K. Luger (University of Colorado-Boulder). Site-directed mutagenesis was performed with Q5 Site-Directed Mutagenesis Kit (New England Biolabs).” left out
(§3) Peptide sequences are given in Supplementary Table 1. […] Polarization at each concentration was measured as triplicates in 384-well polystyrene black microplates (Thermo Fisher Scientific 262260) by Biotek Synergy H4 multimode plate reader (light source: xenon flash, offset from top: 7 mm, sensitivity: 60%, excitation: 485/20 nm, emission: 528/20 nm, both parallel and perpendicular, normal read speed). Fraction bound (Fb) at each concentration was calculated based on the corresponding polarization values (P): Fbc=(Pc−Pmin)/(Pmax−Pmin), where Pmin is the polarization value of no-protein control and Pmax is the polarization value of the saturation value for that peptide. […]

[4] = biological target: T4, KDM4B S965D (Homo sapiens, UniProt O94953, S965D); assay: FP binding, KDM4B-DTD S965D; conditions: pH 7.4, Fig. 4i (± s.d., three replicates) and text
T4 construct: DNA encoding DTDs (KDM4A 895–1011aa, KDM4B 917–1031aa and KDM4C 877–991aa); (His)6-HaloTag (pFN29) or (His)6 (pET28b); made in house; host or cells: Escherichia coli BL21 (DE3)
T4 sequence (O94953 917-1031 S965D): T2 sequence (O94953 917-1031) with S49D
Description: as §1, with “Plasmids encoding Xenopus laevis core histones were a generous gift of K. Luger (University of Colorado-Boulder). Site-directed mutagenesis was performed with Q5 Site-Directed Mutagenesis Kit (New England Biolabs).” left out
as §3

C[C@H](N)C(=O)N[C@@H](CCCNC(=N)N)C(=O)N[C@H](C(=O)N[C@@H](CCCC[N+](C)(C)C)C(=O)N[C@@H](CCC(N)=O)C(=O)N[C@H](C(=O)N[C@@H](C)C(=O)N[C@@H](CCCNC(=N)N)C(=O)N[C@@H](CCCCN)C(=O)N[C@@H](CO)C(=O)N[C@H](C(=O)NCC(=O)NCC(=O)N[C@@H](CCCCNC(=O)c1ccc2c(c1)C(=O)OC21c2ccc(O)cc2Oc2cc(O)ccc21)C(=O)O)[C@@H](C)O)[C@@H](C)O)[C@@H](C)O [H3K4me3]
Kd [1]: 2.7 µM | Kd [2]: > 3 mM | Kd [3]: 304 ± 35.8 µM | Kd [4]: 199 ± 16.1 µM
